Measured values as given in patent US20250214932A1, “T-TYPE CALCIUM CHANNEL MODULATORS COMPRISING AN AZASPIRONONANE CORE AND METHODS OF USE THEREOF” (Praxis Precision Medicines, Inc., priority 2022, published 2025).
Where two headings read alike, the source gives them in different places.

Target: Human Cav3.1 (Homo sapiens (Human), UniProt O43497)
Assay: Human Cav3.1 calcium channel patch clamp assay (SyncroPatch 384PE, HEK-293 natClytin/TASK1+Cav3.1 cell line)
Assay type: cell-based
Description: Pulse generation and data collection were performed with PatchController384 V1.3.0 and DataController384 V1.2.1 (Nanion Technologies). Off-line analysis was performed using Excel and Graphpad Prism (V 8.4.2) with complete data files uploaded to Dotmatics. The access resistance and apparent membrane capacitance were estimated using built-in protocols. Current was recorded in whole cell configuration from a population of cells. The cells were lifted, triturated, and resuspended at 800,000 cells/ml. The cells were allowed to recover in the cell hotel prior to experimentation. Currents were recorded at room temperature. The external solution contained the following (in mM): NaCl 80, NMDG 60, KCl 4, MgCl2 1, CaCl2 6, glucose 5 and HEPES 10 (pH=7.4, Osmolarity ˜300 mOsm). The extracellular solution was used as the wash, reference and compound delivery solution. […] The compound plate was created at 2× concentrated in the extracellular solution. The compound was diluted to 1:2 when added to the recording well. The amount of DMSO in the extracellular solution was held constant at the level used for the highest tested concentration. For the voltage clamp experiments on Cav3.1, data were sampled at 10 KHz. After establishment of the seal and the passage in the whole cell configuration, the cells were held at −120 mV. Cav3.1 current was evoked using a 100 ms step to −20 mV (to measure resting state block), followed by a 1600 ms step to −65 mV and a second 100 ms step to −20 mV (to measure voltage dependent block). The voltage protocol was applied every 15 seconds in the absence and in the presence of the compounds under investigation. […] Current amplitude (pA) was measured in the peak 1 and 2. The average of last 3 sweeps of each liquid period (vehicle, compound under investigation, full block) was calculated. Nickel-sensitive current was used to calculate the % of inhibition in the presence of the compound under investigation.
Pulse generation and data collection were performed with PatchController384 V1.3.0 and DataController384 V1.2.1 (Nanion Technologies). Off-line analysis was performed using Excel and Graphpad Prism (V 8.4.2) with complete data files uploaded to Dotmatics. The access resistance and apparent membrane capacitance were estimated using built-in protocols. Current was recorded in whole cell configuration from a population of cells.
The cells were lifted, triturated, and resuspended at 800,000 cells/ml. The cells were allowed to recover in the cell hotel prior to experimentation. Currents were recorded at room temperature. The external solution contained the following (in mM): NaCl 80, NMDG 60, KCl 4, MgCl2 1, CaCl2 6, glucose 5 and HEPES 10 (pH=7.4, Osmolarity ˜300 mOsm). The extracellular solution was used as the wash, reference and compound delivery solution.
The compound plate was created at 2× concentrated in the extracellular solution. The compound was diluted to 1:2 when added to the recording well. The amount of DMSO in the extracellular solution was held constant at the level used for the highest tested concentration. For the voltage clamp experiments on Cav3.1, data were sampled at 10 KHz. After establishment of the seal and the passage in the whole cell configuration, the cells were held at −120 mV. Cav3.1 current was evoked using a 100 ms step to −20 mV (to measure resting state block), followed by a 1600 ms step to −65 mV and a second 100 ms step to −20 mV (to measure voltage dependent block). The voltage protocol was applied every 15 seconds in the absence and in the presence of the compounds under investigation. […] Current amplitude (pA) was measured in the peak 1 and 2. The average of last 3 sweeps of each liquid period (vehicle, compound under investigation, full block) was calculated. Nickel-sensitive current was used to calculate the % of inhibition in the presence of the compound under investigation.

[1] = patch clamp, HEK-293 natClytin/TASK1+Cav3.1 cells, class symbols, read-out: Human Cav3.1 IC50
[2] = voltage dependent block (VDB), read-out: Cav3.1 (VDB) IC50

Chain of Human Cav3.1 (O43497 whole entry): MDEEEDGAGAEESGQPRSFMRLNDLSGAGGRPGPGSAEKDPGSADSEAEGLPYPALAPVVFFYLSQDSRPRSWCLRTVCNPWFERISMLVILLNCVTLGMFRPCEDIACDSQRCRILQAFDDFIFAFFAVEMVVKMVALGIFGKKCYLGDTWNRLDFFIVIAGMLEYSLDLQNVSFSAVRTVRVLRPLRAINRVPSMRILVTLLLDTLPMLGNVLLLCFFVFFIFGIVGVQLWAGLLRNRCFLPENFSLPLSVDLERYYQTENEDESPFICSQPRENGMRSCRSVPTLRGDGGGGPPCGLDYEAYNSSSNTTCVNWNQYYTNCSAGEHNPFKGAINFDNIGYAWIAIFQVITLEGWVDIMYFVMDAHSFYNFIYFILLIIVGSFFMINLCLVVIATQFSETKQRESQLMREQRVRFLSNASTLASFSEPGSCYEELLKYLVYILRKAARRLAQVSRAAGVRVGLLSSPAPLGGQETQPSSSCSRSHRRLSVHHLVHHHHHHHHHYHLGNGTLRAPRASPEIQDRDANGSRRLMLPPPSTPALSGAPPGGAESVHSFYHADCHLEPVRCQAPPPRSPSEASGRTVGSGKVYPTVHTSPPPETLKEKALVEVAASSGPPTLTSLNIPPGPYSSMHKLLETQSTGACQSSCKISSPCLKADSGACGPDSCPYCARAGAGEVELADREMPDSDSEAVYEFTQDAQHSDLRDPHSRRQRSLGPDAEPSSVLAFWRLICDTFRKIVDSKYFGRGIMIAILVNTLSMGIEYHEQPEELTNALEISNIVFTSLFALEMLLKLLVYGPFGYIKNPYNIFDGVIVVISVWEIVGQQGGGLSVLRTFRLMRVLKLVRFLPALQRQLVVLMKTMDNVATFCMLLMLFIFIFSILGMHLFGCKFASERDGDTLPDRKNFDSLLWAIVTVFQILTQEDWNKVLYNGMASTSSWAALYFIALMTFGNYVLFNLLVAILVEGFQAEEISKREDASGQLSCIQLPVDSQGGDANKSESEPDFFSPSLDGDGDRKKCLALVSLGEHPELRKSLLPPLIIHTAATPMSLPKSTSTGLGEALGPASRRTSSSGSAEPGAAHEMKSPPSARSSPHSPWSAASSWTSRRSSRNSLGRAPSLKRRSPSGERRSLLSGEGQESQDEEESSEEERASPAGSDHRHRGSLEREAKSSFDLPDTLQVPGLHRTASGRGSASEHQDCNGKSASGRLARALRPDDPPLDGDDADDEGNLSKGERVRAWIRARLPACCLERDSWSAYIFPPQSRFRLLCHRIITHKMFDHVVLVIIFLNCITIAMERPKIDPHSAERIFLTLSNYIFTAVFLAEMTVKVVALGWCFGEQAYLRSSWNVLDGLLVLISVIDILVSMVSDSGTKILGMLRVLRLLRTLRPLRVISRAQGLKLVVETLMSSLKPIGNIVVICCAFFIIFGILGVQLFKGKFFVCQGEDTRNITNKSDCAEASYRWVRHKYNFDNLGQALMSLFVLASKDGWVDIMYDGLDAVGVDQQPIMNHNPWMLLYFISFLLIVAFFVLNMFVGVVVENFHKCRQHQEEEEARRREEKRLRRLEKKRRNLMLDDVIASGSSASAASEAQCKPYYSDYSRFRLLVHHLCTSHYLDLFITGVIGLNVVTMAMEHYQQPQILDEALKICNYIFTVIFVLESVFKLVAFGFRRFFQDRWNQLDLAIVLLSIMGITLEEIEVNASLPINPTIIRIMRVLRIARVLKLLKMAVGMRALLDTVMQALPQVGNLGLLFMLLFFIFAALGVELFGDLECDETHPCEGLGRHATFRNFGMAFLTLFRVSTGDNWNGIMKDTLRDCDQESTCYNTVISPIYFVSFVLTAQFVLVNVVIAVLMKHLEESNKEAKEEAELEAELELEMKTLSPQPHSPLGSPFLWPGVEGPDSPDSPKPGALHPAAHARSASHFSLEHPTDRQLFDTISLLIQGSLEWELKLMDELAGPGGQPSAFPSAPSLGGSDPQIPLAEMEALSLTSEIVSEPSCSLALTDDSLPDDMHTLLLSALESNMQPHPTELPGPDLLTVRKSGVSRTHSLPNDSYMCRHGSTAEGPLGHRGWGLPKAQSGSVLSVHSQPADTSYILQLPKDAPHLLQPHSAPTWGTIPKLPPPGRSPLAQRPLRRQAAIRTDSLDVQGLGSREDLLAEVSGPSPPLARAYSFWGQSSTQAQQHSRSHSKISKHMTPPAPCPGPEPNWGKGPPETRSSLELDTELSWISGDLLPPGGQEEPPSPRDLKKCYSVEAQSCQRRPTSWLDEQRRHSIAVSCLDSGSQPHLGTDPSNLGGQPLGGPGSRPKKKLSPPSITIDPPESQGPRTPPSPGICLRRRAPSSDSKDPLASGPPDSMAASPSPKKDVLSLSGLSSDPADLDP

| SMILES | IC50 [1] [nM] | IC50 [2] [nM] |
| --- | --- | --- |
| CC(C)(C)NC(=O)CN1CC2(CCC(C(=O)NC34CC5CC(CC(C5)C3)C4)CC2)C1 [Example 26] | 1000 to 10000 | – |
| COc1cc(F)cc(NC(=O)C2CCC3(CC2)CN(CCS(=O)(=O)C(C)(C)C)C3)c1 [Example 88] | – | 1010 |
| CC(C)(C)NC(=O)CN1CC2(CCC(C(=O)Nc3cc(Cl)cc(Cl)c3)CC2)C1 [Example 1, 2-(2-(tert-butylamino)-2-oxoethyl)-N-(3,5-dichlorophenyl)-2-azaspiro[3.5]nonane-7-carboxamide] | < 1000 | 176 |
| COc1cc(NC(=O)C2CCC3(CC2)CN(CC(=O)NC2(C(F)(F)F)CC2)C3)ccc1Cl [Example 158] | – | 162 |
| O=C(Nc1cc(F)cc(C(F)F)c1)C1CCC2(CC1)CN(CCNC(=O)C1(C(F)(F)F)CC1)C2 [Example 50] | – | 284 |
| O=C(Nc1cc(F)cc(C(F)F)c1)C1CCC2(CC1)CN(CCC1CCCC1)C2 [Example 31] | < 1000 | 376 |
| O=C(Nc1cc(F)cc(Cl)c1)C1CCC2(CC1)CN(Cc1cccc(C(F)F)c1)C2 [Example 19] | < 1000 | 624 |
| O=C(CN1CC2(CCC(C(=O)Nc3cc(F)cc(C(F)F)c3)CC2)C1)NC1CCCC1 [Example 32] | < 1000 | 139 |
| CC(C)(C)NC(=O)CN1CC2(CCC(C(=O)Nc3ccc(Cl)cc3)CC2)C1 [Example 3] | < 1000 | 724 |
| O=C(CN1CC2(CCC(C(=O)Nc3cc(F)cc(Cl)c3)CC2)C1)NC1CCCC1 [Example 21] | < 1000 | < 78.2 |
| CC(C)(C)NC(=O)CN1CC2(CCC(C(=O)Nc3cccc(OC(F)(F)F)c3)CC2)C1 [Example 63] | – | 492 |
| O=C(CN1CC2(CCC(C(=O)Nc3cc(F)cc(OC(F)F)c3)CC2)C1)NC1(C(F)(F)F)CC1 [Example 119] | – | 366 |
| O=C(NC12CCC(CC1)CC2)C1CCC2(CC1)CN(CC1(O)CCC(F)(F)CC1)C2 [Example 155] | – | 606 |
| O=C(Nc1cc(F)cc(C(F)F)c1)C1CCC2(CC1)CN(CC(F)C1CCCC1)C2 (centres unmarked) [Example 93] | – | 645 |
| O=C(NC12CCC(CC1)CC2)C1CCC2(CC1)CN(CC1(F)CCC(F)(F)CC1)C2 [Example 149] | – | 688 |
| CC(C)(C)NC(=O)CN1CC2(CCC(C(=O)Nc3cc(F)cc(OC(F)F)c3)CC2)C1 [Example 7] | < 1000 | 118 |
| O=C(CN1CC2(CCC(C(=O)Nc3cccc(OC(F)F)c3)CC2)C1)NC1(C(F)(F)F)CCC1 [Example 109] | – | 231 |
| N#CC1(CN2CC3(CCC(C(=O)Nc4cc(F)cc(C(F)F)c4)CC3)C2)CC1 [Example 134] | – | 1500 |
| CC1(S(=O)(=O)NCCN2CC3(CCC(C(=O)Nc4cc(F)cc(C(F)F)c4)CC3)C2)CC1 [Example 76] | – | 550 |
| COc1cc(F)cc(NC(=O)C2CCC3(CC2)CN(CC2(C#N)CCC(F)(F)CC2)C3)c1 [Example 97] | – | 550 |
| COc1cc(NC(=O)C2CCC3(CC2)CN(CC(=O)NC(C)(C)C)C3)ccc1Cl [Example 157] | – | 129 |
| CCC(C)(C)NC(=O)CN1CC2(CCC(C(=O)Nc3cc(F)cc(C(F)F)c3)CC2)C1 [Example 27] | < 1000 | 182 |
| COc1cc(Cl)cc(NC(=O)C2CCC3(CC2)CN(CC(=O)NC2(C(F)(F)F)CC2)C3)c1 [Example 160] | – | < 78.2 |
| N#CC1(CN2CC3(CCC(C(=O)Nc4cc(F)cc(Cl)c4)CC3)C2)CCOCC1 [Example 139] | – | 1370 |
| CN(C(=O)CN1CC2(CCC(C(=O)Nc3cc(F)cc(C(F)F)c3)CC2)C1)C1CCCC1 [Example 35] | < 1000 | 320 |
| CC(C)(C)S(=O)(=O)CCN1CC2(CCC(C(=O)Nc3cccc(Cl)c3)CC2)C1 [Example 106] | – | 739 |
| N#CC1(CN2CC3(CCC(C(=O)Nc4cccc(Cl)c4)CC3)C2)CCC(F)(F)CC1 [Example 110] | – | 706 |
| COc1cc(NC(=O)C2CCC3(CC2)CN(CC(=O)NC2(C(F)(F)F)CC2)C3)ccc1F [Example 125] | – | 588 |

| SMILES | IC50 [1] [nM] | IC50 [2] [nM] |
| --- | --- | --- |
| CC(C)(C)c1coc(CN2CC3(CCC(C(=O)Nc4cc(F)cc(Cl)c4)CC3)C2)n1 [Example 20] | < 1000 | 988 |
| COc1cc(F)cc(NC(=O)C2CCC3(CC2)CN(CC(=O)NC2(C(F)(F)F)CCC2)C3)c1 [Example 84] | – | 110 |
| CC1(CCN2CC3(CCC(C(=O)Nc4cc(F)cc(C(F)F)c4)CC3)C2)CC1 [Example 38] | < 1000 | 367 |
| O=C(CN1CC2(CCC(C(=O)Nc3cccc(C(F)F)c3)CC2)C1)NC1(C(F)(F)F)CC1 [Example 111] | – | 932 |
| CN(CCN1CC2(CCC(C(=O)Nc3cc(F)cc(C(F)F)c3)CC2)C1)C(=O)C1(C)CC1 [Example 72] | – | 1040 |
| CC(C)(NC(=O)CN1CC2(CCC(C(=O)Nc3cc(F)cc(Cl)c3)CC2)C1)C(F)(F)F [Example 16] | < 1000 | 170 |
| Cc1cc(F)cc(NC(=O)C2CCC3(CC2)CN(CC(=O)NC2(C(F)(F)F)CC2)C3)c1 [Example 117] | – | 221 |
| O=C(Nc1cc(F)cc(Cl)c1)C1CCC2(CC1)CN(CCC1CCCC1)C2 [Example 17] | < 1000 | 182 |
| O=C(Nc1cc(F)cc(C(F)F)c1)C1CCC2(CC1)CN(CC1CCC(F)(F)CC1)C2 [Example 28] | < 1000 | 370 |
| O=C(CN1CC2(CCC(C(=O)Nc3cc(F)cc(Cl)c3)CC2)C1)NC1(C(F)(F)F)CC1 [Example 58] | – | 59.7 |
| O=C(Nc1cc(F)cc(C(F)F)c1)C1CCC2(CC1)CN(CCS(=O)(=O)c1ccccc1)C2 [Example 80] | – | 428 |
| O=C(Nc1cccc(Cl)c1)C1CCC2(CC1)CN(CC(F)(F)C1CCCCC1)C2 [Example 101] | – | 488 |
| N#CC1(CN2CC3(CCC(C(=O)Nc4cc(F)cc(Cl)c4)CC3)C2)CCCC1 [Example 130] | – | 296 |
| CC(C)(C)CCN1CC2(CCC(C(=O)Nc3cc(F)cc(C(F)F)c3)CC2)C1 [Example 33] | < 1000 | 339 |
| O=C(CN1CC2(CCC(C(=O)Nc3ccc(F)c(C(F)F)c3)CC2)C1)NC1(C(F)(F)F)CC1 [Example 127] | – | 492 |
| CC(C)(C)CCN1CC2(CCC(C(=O)NC34CC5CC(CC(C5)C3)C4)CC2)C1 [Example 154] | – | 1290 |
| O=C(CN1CC2(CCC(C(=O)Nc3cc(F)cc(Cl)c3)CC2)C1)NC1(C(F)(F)F)COC1 [Example 89] | – | 522 |
| O=C(CN1CC2(CCC(C(=O)Nc3ccc(F)c(Cl)c3)CC2)C1)NC1(C(F)(F)F)CC1 [Example 115] | – | 219 |
| CC(C)(C)NC(=O)CN1CC2(CCC(CNC(=O)c3cccc(Cl)c3)CC2)C1 [Example 145] | – | 569 |
| O=C(Nc1cccc(Cl)c1)C1CCC2(CC1)CN(CCS(=O)(=O)c1ccccc1)C2 [Example 102] | – | 497 |
| O=C(CN1CC2(CCC(C(=O)NC34CCC(CC3)C4)CC2)C1)NC1(C(F)(F)F)CC1 [Example 150] | – | 1960 |
| CC(C)(NC(=O)CN1CC2(CCC(C(=O)Nc3cccc(C(F)(F)F)c3)CC2)C1)C(F)(F)F [Example 66] | – | 372 |
| COCCNC(=O)CN1CC2(CCC(C(=O)Nc3cc(F)cc(Cl)c3)CC2)C1 [Example 18] | 1000 to 10000 | – |
| O=C(CN1CC2(CCC(C(=O)Nc3cc(F)cc(Cl)c3)CC2)C1)OC1CCCC1 [Example 57] | – | 709 |
| O=C(Nc1cc(F)cc(Cl)c1)C1CCC2(CC1)CN(Cc1cccc(Cl)c1)C2 [Example 23] | < 1000 | 467 |
| CCOc1cccc(NC(=O)C2CCC3(CC2)CN(CC(=O)NC2(C(F)(F)F)CC2)C3)c1 [Example 114] | – | 1130 |
| CC1(C(=O)NCCN2CC3(CCC(C(=O)Nc4cc(F)cc(C(F)F)c4)CC3)C2)CCC1 [Example 53] | – | 447 |
